Results from US20060058346A1, “Novel enantiomers of etrahydroisoquinoline derivatives and theirpharmaceutically acceptable salts, their preparations and pharmaceutical compositions” (priority 2002, published 2006).
Like-named read-outs stand apart in the source and are kept apart here.

Assays:
Rat Thoracic Aortas = experiment: Relaxation of rat thoracic aortas contracted by phenylephrine; settings: for IC50: Rattus norvegicus, Endothelial cell, 0.1 μM phenylephrine contraction; for relaxation of contracted blood vessels: concentration-dependant manner
Protocol: Experimental group was divided into two groups, group containing endothelial cells of blood vessel and group not containing. Blood vessel of thoracic aortas was induced to contract by treatment with 0.1 μM of phenyleprine under tension of 1 g. Upon arriving at equilibrium, the enantiomers were added to an organ bath in a cumulative manner. Relaxation of thoracic aortas was recorded using a physiograph (Grass P7), calculating their response to the compounds with consideration of their added amount.

LPS-injected rat = experiment: Serum/plasma level of nitrate/nitrite (NOx) in LPS-injected rat; assay type: in vivo; settings: 10 mg/kg compound; LPS 20 mg/kg
Protocol: The rats were divided into three groups; (1) LPS-injected group (LPS was administered to abdominal cavity in an amount of 20 mg/kg), (2) enantiomer-injected group (LPS+the compounds represented by formula 3 to 8 was administered to abdominal cavity) or (3) saline solution-injected group. After administration of LPS, the rats were anaesthetized with pentobarbital. The blood was collected from rats by using heart punching. The plasma level of nitrite was measured by using the nitrate reductase derived from Aspergillus species, where the nitrate was reduced by enzyme. Particularly, the plasma was diluted with distilled water in a ratio of 1:10. Analysis buffering solution (KH2PO4 50 Mm, NADPH 0.6 Mm, FAD 5 Mm and nitrate reductase 10 U/ml, Ph 5.5) was added to the said plasma. Thereafter, the reaction was accomplished at 37° C. for 30 min. The plasma level of nitrite was measured by using sodium nitrite as a standard, and Griess solution. Standard curve to nitrite was calculated from the result derived from incubation in analysis buffering solution.

iNOS = experiment: Expression of iNOS stimulated by LPS in macrophage cell, Western blotting; assay type: cell-based; settings: LPS 1 μg/ml; 10, 50, 100 μM; FIG. 1
Protocol: Macrophage cells (RAW 264.7 cell) were plated on 100 mm culture dishes at a density of 1-2×10^5 cells and incubated in DMEM medium containing 10% fetal calf serum (heat-inactivated), 100 U/ml penicillin, and […] streptomycin in a CO2 incubator. When being grown to complete confluence, macrophage cell was inoculated in serum-free DMEM medium, and further incubated for about 24 hours. Thereafter, macrophage cells were stimulated in the presence of LPS (1 μg/ml) and each of the compounds represented by the formulas 3 to 8 for about 12 hours. Total protein was isolated from the macrophage cells. The isolated protein was quantified by using Bradford method. 10 μg of isolated protein was loaded in SDS-PAGE electroporesis gel. The said gel was transferred to PVDF membrane. Anti-iNOS antibody was added to the said gel, thereafter disposed at 4° C. overnight. Thereafter, secondary antibody was added to the said gel, reacted for 1 hour at the room temperature and sensitized using ECL. Expression of protein was quantified, compared to the expressed Actin.

right auricle muscle = experiment: Heart rates (beats) of right auricle muscle excised from rats; set-up: species or system rat; settings: for Heart Rates of Auricle Muscles: vehicle control:100%
Protocol: Immediately after Sprague-Dawley rats (female or male) were anaesthetized with pentobarbital sodium (50 mg/kg, i.m.), the thorax was opened to excise the heart. The heart was submerged in Krebs solution, and left auricle muscle and right auricle muscle were then isolated. The left auricle muscle was placed in an organ bath for recording of contractile force, and applied with electrical field stimulation (voltage 10% higher than threshold voltage, 1 Hz frequency, 5 ms duration). In the case of right auricle muscle, which contracts spontaneously, the number of continuous beats was recorded. In this experiment, to measure contractile fore of the two auricle muscles, the organ bath was warmed to 37° C., and as a physiological solution, Krebs solution (119.8 mM NaCl, 4.6 mM KCl, 2.5 mM CaCl2, 1.2 mM MgCl2, 25 mM NaHCO3, 1.2 mM KH2PO4, 10 mM glucose, 1 mM EDTA, pH 7.4) was used. The Krebs solution (pH 7.4) was continuously saturated with a gas mixture of 95% O2 and 5% CO2. The auricle muscle was under a tension of 1 g, and Krebs solution was exchanged with fresh solution at intervals of 20 minutes while equilibrium was maintained during a recording period of 60 minutes.

[1] = group containing endothelial cells, read-out: IC50 (E+), concentration showing relaxation response of 50%
[2] = group not containing endothelial cells, read-out: IC50 (E−), concentration showing relaxation response of 50%

| SMILES | IC50 (Rat Thoracic Aortas; [1]) | IC50 (Rat Thoracic Aortas; [2]) | relaxation of contracted blood vessels (Rat Thoracic Aortas) | plasma level of NOx (LPS-injected rat) | expression of iNOS protein (iNOS) | Heart Rates of Auricle Muscles (right auricle muscle; 1 × 10^−4 M) | Heart Rates of Auricle Muscles (right auricle muscle; 1 × 10^−5 M) | Heart Rates of Auricle Muscles (right auricle muscle; 1 × 10^−6 M) | Heart Rates of Auricle Muscles (right auricle muscle; 1 × 10^−7 M) | Heart Rates of Auricle Muscles (right auricle muscle; 3 × 10^−5 M) | Heart Rates of Auricle Muscles (right auricle muscle; 3 × 10^−6 M) | Heart Rates of Auricle Muscles (right auricle muscle; 3 × 10^−7 M) | effect on heart rates of auricle muscles (right auricle muscle) |
| --- | --- | --- | --- | --- | --- | --- | --- | --- | --- | --- | --- | --- | --- |
| Oc1ccc(C[C@@H]2NCCc3cc(O)c(O)cc32)cc1 [Formula 3, (S)-6,7-Dihydroxy-1-(p-hydroxyphenylmethyl)-1,2,3,4-tetrahydroisoquinoline] | 0.917 µM | 4.3 µM | induced relaxation | 29 ± 3 µM | inhibited expression of iNOS protein strongly than R-enantiomer | 250% | 180% | 145% | 130% | 200% | 150% | 140% |  |
| Oc1ccc(C[C@H]2NCCc3cc(O)c(O)cc32)cc1 [Formula 4, (R)-6,7-Dihydroxy-1-(p-hydroxyphenylmethyl)-1,2,3,4-tetrahydroisoquinoline] | 4.64 µM | 7.7 µM | induced relaxation | 85 ± 7 µM |  | 140% | 120% | 110% | 100% | 130% | 115% | 100% | increased |
| Oc1cc2c(cc1O)[C@H](Cc1cccc3ccccc13)NCC2 [Formula 5] | 0.714 µM | 5.5 µM | induced relaxation |  | inhibited expression of iNOS protein strongly than R-enantiomer | 190% | 180% | 175% | 150% | 187% | 178% | 162.5% | strongly stimulated |
| Oc1cc2c(cc1O)[C@@H](Cc1cccc3ccccc13)NCC2 [Formula 6, (R)-6,7-Dihydroxy-1-(α-naphthylmethyl)-1,2,3,4-tetrahydroisoquinoline] | 1.28 µM | 8.81 µM | induced relaxation |  |  | 71% | 85% | 93.75% | 100% | 75% | 94% | 93.75% | no effect |
| Oc1cc2c(cc1O)[C@H](Cc1ccc3ccccc3c1)NCC2 [Formula 7, (S)-6,7-Dihydroxy-1-(β-naphthylmethyl)-1,2,3,4-tetrahydroisoquinoline] | 0.757 µM | 3.14 µM | induced relaxation |  | inhibited expression of iNOS protein strongly than R-enantiomer | 180% | 175% | 165% | 150% | 180% | 170% | 160% | strongly stimulated |
| Oc1cc2c(cc1O)[C@@H](Cc1ccc3ccccc3c1)NCC2 [Formula 8, (R)-6,7-Dihydroxy-1-(β-naphthylmethyl)-1,2,3,4-tetrahydroisoquinoline] | 1.95 µM | 7.54 µM | induced relaxation |  |  | 105% | 105% | 100% | 100% | 105% | 100% | 100% | no effect |
